{"source": "patent US20170136008A1", "about": "“OXABICYCLOHEPTANES AND OXABICYCLOHEPTENES FOR THE TREATMENT OF OVARIAN CANCER” (priority 2014, published 2017)", "key": {"[1]": {"tested_on": "BRCA1, Wee1, Chk1, γH2AX phosphorylation in SKOV-3 tumors", "experiment": "Ex-vivo western blot of intraperitoneal tumors", "type": "in vivo, mouse", "details": "LB100 alone 1.5 mg/kg, 4 h", "experimental": "Whole cell and homogenized tumor tissues were lysed in NP-40 lysis buffer [50 mM Tris/HCl, pH 7.4, 150 mM NaCl and 1% Nonidet P40, supplemented with Complete Protrase Inhibitor Cocktail tablets and PhosStop phosphatase inhibitors (Roche, Indianapolis, Ind.)] and prepared as previously described (Madigan, J. P. et al. 2009). Protein (40 μg) was resolved on SDS/PAGE (12% or 15% gels) and transferred onto Immobilon PVDF membrane. The membrane was then blocked for 1 hour at room temperature in 5% (w/v) non-fat milk in TBS-Tween and probed overnight with primary antibodies. […]\nFive- to seven-week-old female nude athymic mice (nu/nu) were obtained from NCI (Frederick, Md.), maintained in accredited animal facilities and used as stipulated by the U.S. Public Health Service Policy on Humane Care and Use of Laboratory Animals, in accordance with institutional reviews (http://oacu.odnih.gov). […] Tumor growth was measured twice a week via bioluminescence imaging (BLI) as previously described (Bakhsheshian, J. et al. 2013). […] Relative intensity of the BLI signal for each mouse was calculated by dividing the total luminescence for each session by the total luminescence measured on day 1 of treatment. […] Toxicity of the treatment regimens was assessed by the degree of weight loss and the overall health status was continuously monitored by a veterinarian on staff. […]"}, "[2]": {"tested_on": "PEO6 ovarian cancer cell line", "experiment": "MTT cytotoxicity assay, PEO6", "type": "cell-based, human", "details": "Homo sapiens, read-out: IC50, viability of ovarian cancer cell line", "experimental": "SKOV-3 ovarian cancer cells were purchased from American Type Culture Collection (ATCC) (Manassas, Va.). SKOV-3 cells were cultured in McCoy's 5A medium (ATCC, Manassas, Va.) supplemented with 10% fetal bovine serum and 100 units/mL penicillin G sodium, 100 ug/mL streptomycin sulfate, and 292 μg/ml, L-glutamine (BioWhittaker, Wakersville, Md.). Luciferase-expressing cells were generated by infecting SKOV-3 cells with pCLNCX-luciferase retrovirus (SKOV-3-Luc) as previously reported (Wei, B. R. et al. 2009). Human OVCAR-8 ovarian cancer cells were provided by the National Cancer Institute (part of the NCI-60 collection). The PEO1, PEO4, and PEO6 ovarian cancer cell lines have previously been characterized (Langdon, S. P. et al. 1988) and were kindly provided by Dr. Ian Goldlust (National Center for Advancing Translational Sciences, Shady Grove, Md.). […]\nCell survival was measured by the 3-(4,5-dimethylthiazol-2-yl)-2,5-diphenyltetrazolium bromide (MTT, Invitrogen) assay. […] Absorbance values were determined at […] on a Spectra Max 250 spectrophotometer (Molecular Devices, Sunnyvale, Calif.). […] Cell viability was analyzed via the MTT assay as described above. […]"}, "[3]": {"tested_on": "p-Chk1 (S345) and apoptosis proteins in OVCAR-8 cells", "experiment": "Immunoblotting, OVCAR-8 cells", "type": "cell-based, human", "details": "after 1 h cisplatin, recovery up to 8 h, vs media alone", "experimental": "Whole cell and homogenized tumor tissues were lysed in NP-40 lysis buffer [50 mM Tris/HCl, pH 7.4, 150 mM NaCl and 1% Nonidet P40, supplemented with Complete Protrase Inhibitor Cocktail tablets and PhosStop phosphatase inhibitors (Roche, Indianapolis, Ind.)] and prepared as previously described (Madigan, J. P. et al. 2009). Protein (40 μg) was resolved on SDS/PAGE (12% or 15% gels) and transferred onto Immobilon PVDF membrane. The membrane was then blocked for 1 hour at room temperature in 5% (w/v) non-fat milk in TBS-Tween and probed overnight with primary antibodies. After extensive washing, cells were probed with anti-rabbit or anti-mouse IgG-horseradish per oxidase (HRP)-conjugated secondary antibodies (Cell Signaling Technology, Danvers, Mass.) in blocking buffer for 1 h. Membranes were subsequently incubated in Immobilon Western blot Chemiluminescent HRP Substrate (Millipore) and developed on biomax XAR film (Kodak). Antibodies were purchased from Cell Signaling Technology: γH2AX (Ser139), p-Wee1 (Ser 642), Wee1, p-cdc2 (Tyr15), p-BRCA1 (Ser1524), p-Chk1 (Ser345), p-Chk1 (Ser317), Chk-1, phospho-Chk2 (Thr68), PP2Ac, cleaved caspase-3 (Asp175), cleaved PARP (Asp214), p-histone H3 (Ser10), p-ATR (Ser428), and p-(Ser)14-3-3 binding motif. […]"}}}
{"smiles": "CN1CCN(C(=O)C2C(C(=O)O)[C@H]3CC[C@@H]2O3)CC1", "note": "(stereo partly drawn) [LB100]", "values": [{"measurement": "phosphorylation of BRCA1, Wee1, Chk1, γH2AX", "setting": "[1]", "result": "induced hyperphosphorylation"}, {"measurement": "IC50", "setting": "[2]", "result": "5.1 ± 0.2", "unit": "µM"}, {"measurement": "phosphorylation of Chk1 at S345", "setting": "[3]", "result": "significantly increased"}]}
